Reference: patent US20200002670A1, “Generation of Endocrine Progenitor Cells from Human Pluripotent Stem Cells Using Small Molecules” (Novo Nordisk A/S, priority 2013, published 2020)

Experiments:
Type in all cases: cell-based, human
[1] = test system: pancreatic endoderm cells; assay: NGN3/NKX2.2 double positive cells by immunostaining and InCell imaging after PE to EP differentiation
Protocol: After three days of EP differentiation, at EP day 4, media were aspirated followed by fixation of the cells at room temperature for 30 min with 4% paraformaldehyde (VWR, 97.131.000). Cells were washed with PBS and permeabilized with 0.5% Triton X-100 (Sigma, 9002-93-1) for 10 min, washed and blocked in 0.5% TNB-buffer (Perkin Elmer) for 30 min at room temperature. Primary antibodies, sheep anti-NGN3 (R&D systems #AF3444) and rabbit anti-NKX2.2 (Sigma #HPA003468) were diluted 1:1000 and 1:500, respectively, in 0.1% Triton X-100 in PBS and added to each well for overnight incubation at 4° C. Cells were washed three times with PBS. DAPI (4′,6-diamidino-2-phenylindole, Applichem, A4099.0010) and secondary antibodies, Alexa Fluor 488 donkey anti-goat and Alexa Fluor 594 donkey anti-rabbit (both Invitrogen) were diluted 1:1000 in 0.1% Triton X-100 in PBS and added to each well for 45 min. Cells were washed five times and left in 200 μL PBS for imaging. Imaging was performed using the InCell Analyzer 2000 (GE Healthcare). 4 fields per well with 10× objective were captured. The total cell number based in the DAPI counterstaining and the number of NGN3/NKX2.2 double positive cells was determined using InCell Developer Toolbox 1.8 (GE Healthcare). The fraction of NGN3/NKX2.2 double positive cells were quantified using the InCell developer toolbox software (GE Healthcare) and normalized to the combined protocol K&N (example 2) on each plate and the % effect was calculated (% effect NGN3/NKX2.2 double positive=((S−Sneg)/(|Spos−Sneg|))*100). Wherein S is % NGN3/NKX2.2 double positive cells for a given compound combination, Sneg and Spos are % NGN3/NKX2.2 double positive cells for the negative control and combined protocol K&N, respectively).
An EP cell population was prepared according to examples 1 and 2. However, in addition to the reagents used in example 2 the small molecules listed in table 3 were added for three days at concentrations specified in table 3 below in concentrations as shown. After three days of EP differentiation media were aspirated followed by fixation of the cells at room temperature for 30 min with 4% paraformaldehyde (VWR, 97.131.000). Cells were washed with PBS and permeabilized with 0.5% Triton X-100 (Sigma, 9002-93-1) for 10 min, washed and blocked in 0.5% TNB-buffer (Perkin Elmer) for 30 min at room temperature. Primary antibodies, sheep anti-NGN3 (R&D systems #AF3444) and rabbit anti-NKX2.2 (Sigma #HPA003468) were diluted 1:1000 and 1:500, respectively, in 0.1% Triton X-100 in PBS and added to each well for overnight incubation at 4° C. Cells were washed three times with PBS. DAPI (4′,6-diamidino-2-phenylindole, Applichem, A4099.0010) and secondary antibodies, Alexa Fluor 488 donkey anti-goat and Alexa Fluor 594 donkey anti-rabbit (both Invitrogen) were diluted 1:1000 in 0.1% Triton X-100 in PBS and added to each well for 45 min. Cells were washed five times and left in 200 μL PBS for imaging.
Imaging was performed using the InCell Analyzer 2000 (GE Healthcare). 4 fields per well with 10× objective were captured. The total cell number based in the DAPI counterstaining and the number of NGN3/NKX2,2 double positive cells was determined using InCell Developer Toolbox 1.8 (GE Healthcare). The fraction of NGN3/NKX2.2 double positive cells were quantified using the InCell developer toolbox software (GE Healthcare) and normalized to the combined protocol K&N on each plate and the % effect was calculated (% effect NGN3/NKX2.2 double positive=((S−Sneg)/(|Spos−Sneg|))*100). Wherein S is % NGN3/NKX2.2 double positive cells for a given compound combination, Sneg and Spos are % NGN3/NKX2.2 double positive cells for the negative control and combined protocol K&N, respectively).

[2] = test system: SA121 (hES) derived pancreatic endoderm cells; assay: NGN3/NKX2.2 double positive cells by imaging, small molecule combinations, SA121 (hES); conditions: Method of example 2 + 2.5 μM DAPT
Protocol: (§1) An EP cell population was prepared according to example 2. However, in addition to the reagents used in example 2, certain small molecules listed in table 3 were added either alone or in combination during the three days of EP differentiation. After three days of EP differentiation media were aspirated followed by fixation of the cells at room temperature for 30 min with 4% paraformaldehyde (VWR, 97.131.000). Cells were washed with PBS and permeabilized with 0.5% Triton X-100 (Sigma, 9002-93-1) for 10 min, washed and blocked in 0.5% TNB-buffer (Perkin Elmer) for 30 min at room temperature. […] Cells were washed three times with PBS. DAPI (4',6-diamidino-2-phenylindole, Applichem, […]10) and secondary antibodies, Alexa Fluor 488 donkey anti-goat and Alexa Fluor 594 donkey anti-rabbit (both Invitrogen) were diluted 1:1000 in 0.1% Triton X-100 in PBS and added to each well for 45 min. Cells were washed five times and left in 200 μL PBS for imaging. Imaging was performed using the InCell Analyzer 2000 (GE Healthcare). 4 fields per well with 10× objective were captured.

[3] = test system: CHiPS2 (iPS) derived pancreatic endoderm cells; assay: NGN3/NKX2.2 double positive cells by imaging, small molecule combinations, CHiPS2 (iPS); conditions: Method of example 2 + 2.5 μM DAPT
Protocol: as §1

[4] = 10 μM added to method of example 2 for three days
[5] = 0.5 μM added to method of example 2 for three days
[6] = 5 μM added to method of example 2 for three days
[7] = 0.1 μM added to method of example 2 for three days
[8] = 1 μM added to method of example 2 for three days

SMILES | % effect NGN3/NKX2.2 double positive cells [1, 4] | % effect NGN3/NKX2.2 double positive cells [1, 6] | % effect NGN3/NKX2.2 double positive cells [1, 8] | other results
Cn1cnc2cc3c(Nc4cccc(Br)c4)ncnc3cc21 [BPIQ-I] | 350% | – | – | –
C[C@H](NC(=O)Cc1cc(F)cc(F)c1)C(=O)N[C@@H]1C(=O)N(C)c2ccccc2-c2ccccc21 [CompE] | – | – | – | % effect NGN3/NKX2.2 double positive cells ([1]; 5 nM added to method of example 2 for three days): 250%; % effect NGN3/NKX2.2 double positive cells ([1]; 50 nM added to method of example 2 for three days): 325%; % effect NGN3/NKX2.2 double positive cells ([1]; 500 nM added to method of example 2 for three days): 395%
C[C@H](NC(=O)Cc1cc(F)cc(F)c1)C(=O)N[C@H](C(=O)OC(C)(C)C)c1ccccc1 [DAPT] | – | – | – | % effect NGN3/NKX2.2 double positive cells [1, 5]: 150%; % effect NGN3/NKX2.2 double positive cells ([1]; 2.5 μM added to method of example 2 for three days): 350%; % effect NGN3/NKX2.2 double positive cells ([1]; 25 μM added to method of example 2 for three days): 300%; % effect NGN3/NKX2.2 double positive cells, SA121 (hES) [2]: 165%; % effect NGN3/NKX2.2 double positive cells, CHiPS2 (iPS) [3]: 167%
CN(C)c1ccc(/C=C2/C(=O)Nc3ccccc32)cc1 [DMBI, (Z)-3-[4-(Dimethylamino)benzylidenyl]indolin-2-one] | 231% | 167% | – | –
O=C(c1ccccc1)c1ccc(N2CCOCC2)cc1O [DNA-PK inhibitor V] | – | 370% | – | –
COc1cc2ncnc(Nc3ccc(F)c(Cl)c3)c2cc1OCCCN1CCOCC1 [Gefitinib] | – | 325% | 311% | % effect NGN3/NKX2.2 double positive cells [1, 7]: 222%
CCOc1nc(NC(=O)Cc2cc(OC)ccc2OC)cc(N)c1C#N [JNK VIII] | 308% | 315% | 204% | % effect NGN3/NKX2.2 double positive cells [1, 7]: 160%; % effect NGN3/NKX2.2 double positive cells [1, 5]: 156%
CC(C)CC(NC(=O)C(Cc1ccccc1)CC(O)C(Cc1ccccc1)NC(=O)OC(C)(C)C)C(=O)NC(Cc1ccccc1)C(N)=O (stereo not shown) [L6] | – | – | – | % effect NGN3/NKX2.2 double positive cells ([1]; 50 μM added to method of example 2 for three days): 150%
COc1cccc(-c2cc(=O)c3ccccc3o2)c1N [PD98059] | – | – | 165% | –
CCC(=O)Nc1ccc2ncnc(Nc3cccc(Br)c3)c2c1 [PD174265] | 274% | 374% | 240% | –
c1ccc2c(-c3ccncc3)c[nH]c2c1 [Rockout] | 199% | 208% | – | –
Cn1cc(/C=C2\C(=O)Nc3ccc(S(N)(=O)=O)cc32)c2ccccc21 [Syk inhibitor] | – | – | 157% | –
Cc1cccc(-c2nc(C(C)(C)C)[nH]c2-c2ccc3c(c2)OCO3)n1.Cl [TGFbRI inhibitor III] | – | 182% | – | –
CSc1nc(-c2ccc(F)cc2)c(-c2ccnc(NC(C)c3ccccc3)c2)[nH]1 (stereo not shown) [p38 inhibitor III] | 153% | 191% | – | –
